# Experimental data reported in publication PMC4142572 (Bioorganic & medicinal chemistry letters, 2014).
# Target: hPDE4B (Homo sapiens, UniProt Q07343)
# Test: Enzymatic inhibition of PDE4B long isoform in vitro
# Format: biochemical
# Conditions: for PDE4B-subtype selectivity: enzymatic assays using PDE4B1 and PDE4D7
# Chain of hPDE4B (Q07343 whole entry, canonical isoform): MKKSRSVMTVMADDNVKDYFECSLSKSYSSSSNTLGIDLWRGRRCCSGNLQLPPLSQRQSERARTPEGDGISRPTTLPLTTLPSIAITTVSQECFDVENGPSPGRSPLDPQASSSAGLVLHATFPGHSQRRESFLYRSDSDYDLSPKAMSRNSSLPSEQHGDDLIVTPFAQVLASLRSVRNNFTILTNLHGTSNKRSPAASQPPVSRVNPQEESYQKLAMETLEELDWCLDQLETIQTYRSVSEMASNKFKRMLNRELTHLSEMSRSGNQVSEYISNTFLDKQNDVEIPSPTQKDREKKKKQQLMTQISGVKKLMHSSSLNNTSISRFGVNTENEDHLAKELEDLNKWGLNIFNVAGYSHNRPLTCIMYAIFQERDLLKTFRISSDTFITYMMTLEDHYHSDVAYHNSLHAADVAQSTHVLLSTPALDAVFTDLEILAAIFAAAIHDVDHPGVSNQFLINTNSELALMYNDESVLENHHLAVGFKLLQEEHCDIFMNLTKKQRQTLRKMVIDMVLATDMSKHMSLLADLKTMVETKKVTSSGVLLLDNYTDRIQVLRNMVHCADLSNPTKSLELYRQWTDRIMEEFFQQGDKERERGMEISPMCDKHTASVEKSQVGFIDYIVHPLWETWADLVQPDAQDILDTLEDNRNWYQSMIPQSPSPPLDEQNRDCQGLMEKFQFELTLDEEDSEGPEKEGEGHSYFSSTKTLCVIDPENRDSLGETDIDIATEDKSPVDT
PDE4B-subtype selectivity,IC50 [nM],SMILES
does not show PDE4B-subtype selectivity,–,CCOc1nc(Nc2ccc(OC)cc2)nc(OCC)n1 [Compound 1]
–,770,O=C(O)Cc1ccc(Nc2nc(-c3ccc(Cl)cc3)nc(C3CC3)n2)cc1 [Compound 9]
highly selective for PDE4B,–,"CCc1c(C)nc(-c2ccc(Cl)s2)nc1Nc1ccc(CC(=O)O)cc1 [Compound 2, reference compound]"
